27 compounds from US7109216B2 (priority 2001, dated 2006) can be followed below.

Data set [1] addresses T1, human cannabinoid CB1 receptor (Homo sapiens, UniProt P21554). In words: Cannabinoid CB1 antagonistic activity, forskolin-induced cAMP accumulation in CHO cells. The format is cell-based. More on the design: expressed in transfected cells; host or cells: CHO cells. As for the experimental part:
The cannabinoid CB1 antagonistic activity of compounds of the invention was determined by functional studies using CHO cells in which human cannabinoid CB1 receptors were stably expressed. Adenylyl cyclase was stimulated using forskolin and measured by quantifying the amount of accumulated cyclic AMP. Concomitant activation of CB1 receptors by CB1 receptor agonists (e.g. CP-55,940 or (R)-WIN-55,212–2) can attenuate the forskolin-induced accumulation of cAMP in a concentration-dependent manner. This CB1 receptor-mediated response can be antagonized by CB1 receptor antagonists such as the compounds of the invention.

Data set [2] deals with T1, human cannabinoid CB1 receptor. The data set is described as follows: biochemical. The format is binding. More on the design: expressed in transfected cells; host or cells: Chinese hamster ovary (CHO) cells, membrane preparation. As to conditions: [3H]CP-55,940 radioligand, CHO cell membranes stably transfected with human CB1. As for the experimental part:
After incubation of a freshly prepared cell membrane preparation with the [^3H]-ligand, with or without addition of compounds of the invention, separation of bound and free ligand was performed by filtration over glassfiber filters. Radioactivity on the filter was measured by liquid scintillation counting.

Where [3] appears, read: antagonism of CB1 agonist (e.g. CP-55,940 or (R)-WIN-55,212-2) effect on forskolin-induced cAMP accumulation, CHO cells expressing human CB1, read-out: hCB1 pA2 (converted).

Each structure is given as a SMILES string. Where two headings read alike, the source gives them in different places.

By melting point is commonly meant the temperature, or range, at which the solid turns liquid.

T1 sequence (P21554 whole entry): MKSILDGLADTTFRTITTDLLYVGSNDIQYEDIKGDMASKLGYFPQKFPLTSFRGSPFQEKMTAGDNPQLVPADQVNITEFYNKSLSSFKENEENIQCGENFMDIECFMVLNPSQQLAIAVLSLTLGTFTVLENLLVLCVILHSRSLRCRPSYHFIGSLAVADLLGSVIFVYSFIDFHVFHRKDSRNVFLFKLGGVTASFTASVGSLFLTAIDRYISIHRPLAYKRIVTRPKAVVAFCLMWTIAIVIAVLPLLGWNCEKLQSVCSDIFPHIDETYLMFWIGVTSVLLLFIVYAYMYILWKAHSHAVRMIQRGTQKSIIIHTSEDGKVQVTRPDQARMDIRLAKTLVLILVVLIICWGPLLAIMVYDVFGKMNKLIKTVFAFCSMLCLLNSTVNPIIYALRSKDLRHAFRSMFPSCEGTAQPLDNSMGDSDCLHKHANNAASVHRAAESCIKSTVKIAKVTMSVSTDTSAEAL

Take `O=C(NN1CCCCC1)c1cn(-c2ccc(Cl)cc2)c(-c2ccc(Cl)cc2Cl)n1` [Example 1, 1-(4-chlorophenyl)-2-(2,4-dichlorophenyl)-N-(piperidin-1-yl)-1H-imidazole-4-carboxamide]: the “hCB1 pA2” value in data set [1] (antagonism of CB1 agonist (e.g. CP-55,940 or (R)-WIN-55,212-2) effect on forskolin-induced cAMP accumulation, CHO cells expressing human CB1) came to 8.2. The compound further showed a Ki in data set [2] (hCB1 pKi) of 12.6 nM.
As to `O=C(NN1CCCC1)c1cn(-c2ccc(Cl)cc2)c(-c2ccc(Cl)cc2Cl)n1` [Example 2, 1-(4-Chlorophenyl)-2-(2,4-dichlorophenyl)-N-(pyrrolidin-1-yl)-1H-imidazole-4-carboxamide], the Kb in data set [1] (setting [3]) is 25.1 nM. The compound also showed a Ki in data set [2] (hCB1 pKi) of 100 nM.
Regarding `CC(C)(C)ONC(=O)c1cn(-c2ccc(Cl)cc2)c(-c2ccc(Cl)cc2Cl)n1` [Example 3, N-(t-Butoxy)-1-(4-chlorophenyl)-2-(2,4-dichlorophenyl)-1H-imidazole-4-carboxamide], the Kb in data set [1] was 31.6 nM. For the same compound, in data set [2] (read-out: hCB1 pKi (converted)), the Ki is 158 nM.
With `O=C(NC1CCCCC1)c1cn(-c2ccc(Cl)cc2)c(-c2ccc(Cl)cc2Cl)n1` [Example 5, 1-(4-Chlorophenyl)-N-cyclohexyl-2-(2,4-dichlorophenyl)-1H-imidazole-4-carboxamide], the Kb in data set [1] (setting [3]) was 7.94 nM. The Ki in data set [2] (hCB1 pKi) is 79.4 nM.
Consider `Cc1c(C(=O)NOC(C)(C)C)nc(-c2ccc(Cl)cc2Cl)n1-c1ccc(Br)cc1` [Example 16, 1-(4-Bromophenyl)-N-(t-butoxy)-2-(2,4-dichlorophenyl)-5-methyl-1H-imidazole-4-carboxamide], for which the Kb in data set [1] is 15.8 nM.
For `Cc1ccc(-c2nc(C(=O)NC3CCCCC3)c(C)n2-c2ccc(Cl)cc2)n1C` [Example 69, 1-(4-Chlorophenyl)-N-(cyclohexyl)-2-(1,5-dimethyl-1H-pyrrol-2-yl)-5-methyl-1H-imidazole-4-carboxamide], the melting point lay in the range of 188 to 189 °C. For the same compound, the Ki in data set [2] (hCB1 pKi) is 39.8 nM.
`Cc1ccc(-c2nc(C(=O)NN3CCCCC3)c(C)n2-c2ccc(Cl)cc2)n1C` [Example 70, 1-(4-Chlorophenyl)-2-(1,5-dimethyl-1H-pyrrol-2-yl)-5-methyl-N-(piperidin-1-yl)-1H-imidazole-4-carboxamide] showed a melting point of 208 to 210 °C. Besides, the Ki in data set [2] (hCB1 pKi) is 5.01 nM.
With `Cc1c(C(=O)NN2CCCCC2)nc(-c2ccccc2Cl)n1-c1cccc(F)c1` [Example 71, 2-(2-Chlorophenyl)-1-(3-fluorophenyl)-5-methyl-N-(piperidin-1-yl)-1H-imidazole-4-carboxamide], the melting point lay in the range of 236 to 238 °C. The compound also showed a Ki in data set [2] (hCB1 pKi) of 39.8 nM.
The corresponding values for `Cc1c(C(=O)NC2CCCCC2)nc(-c2ccccc2Cl)n1-c1cccc(F)c1` [Example 73, 2-(2-Chlorophenyl)-N-cyclohexyl-1-(3-fluorophenyl)-5-methyl-1H-imidazole-4-carboxamide] are 180 to 182.5 °C and 12.6 nM.
Compound `Cc1c(C(=O)NCCc2ccc(F)cc2)nc(-c2ccccc2Cl)n1-c1cccc(F)c1` [Example 74, 2-(2-Chlorophenyl)-1-(3-fluorophenyl)-N-(2-(4-fluorophenyl)ethyl)-5-methyl-1H-imidazole-4-carboxamide] displayed a melting point of 123.5 to 126 °C. For the same compound, the Ki in data set [2] (read-out: hCB1 pKi (converted)) was 398 nM.
In the case of `CCc1c(C(=O)NN2CCCCC2)nc(-c2ccc(Cl)cc2Cl)n1-c1ccc(Cl)cn1` [Example 75, 1-(5-Chloropyridin-2-yl)-2-(2,4-dichlorophenyl)-5-ethyl-N-(piperidin-1-yl)-1H-imidazole-4-carboxamide], the melting point was 146 °C. The Ki in data set [2] (hCB1 pKi) is 100 nM.
The compound `CCc1c(C(=O)NN2CCOCC2)nc(-c2ccc(Cl)cc2Cl)n1-c1ccc(Cl)cn1` [Example 76, 1-(5-Chloropyridin-2-yl)-2-(2,4-dichlorophenyl)-5-ethyl-N-(4-morpholinyl)-1H-imidazole-4-carboxamide] came in with a melting point of 223 °C. Further, the Ki in data set [2] (read-out: hCB1 pKi (converted)) is 251 nM.
Regarding `CCc1c(C(=O)NN2CCCCCC2)nc(-c2ccc(Cl)cc2Cl)n1-c1ccc(Cl)cn1` [Example 77, N-(1-Azepanyl)-1-(5-Chloropyridin-2-yl)-2-(2,4-dichlorophenyl)-5-ethyl-1H-imidazole-4-carboxamide], the melting point came to 177 °C. Further, in data set [2] (hCB1 pKi), the Ki is 31.6 nM.
The corresponding values for `CCc1c(C(=O)NC2CCCCC2)nc(-c2ccc(Cl)cc2Cl)n1-c1ccc(Cl)cn1` [Example 78, 1-(5-Chloropyridin-2-yl)-N-cyclohexyl-2-(2,4-dichlorophenyl)-5-ethyl-1H-imidazole-4-carboxamide] are 149 °C and 3.16 nM.
Consider `Cc1c(C(=O)Nc2ccccc2)nc(-c2ccc(Cl)cc2Cl)n1-c1ccc(Cl)cc1` [Example 82, 1-(4-Chlorophenyl)-2-(2,4-dichlorophenyl)-5-methyl-N-phenyl-1H-imidazole-4-carboxamide], for which the melting point fell in the range of 91 to 95 °C. This compound had a Ki in data set [2] (hCB1 pKi) of 2.51 nM.
The corresponding values for `Cc1c(C(=O)NOC2CCCCO2)nc(-c2ccc(Cl)cc2Cl)n1-c1ccc(Cl)cc1` (centres unmarked) [Example 83, 1-(4-Chlorophenyl)-2-(2,4-dichlorophenyl)-5-methyl-N-(tetrahydro-2H-pyran-2-yloxy)-1H-imidazole-4-carboxamide] are 128 to 133 °C and 3.98 nM.
The corresponding values for `Cc1c(C(=O)NCCF)nc(-c2ccc(Cl)cc2Cl)n1-c1ccc(Cl)cc1` [Example 85, 1-(4-Chlorophenyl)-2-(2,4-dichlorophenyl)-N-(2-fluoroethyl)-5-methyl-1H-imidazole-4-carboxamide] are 128 to 133 °C and 25.1 nM.
`Cc1c(C(=O)NCc2ccc(F)cc2)nc(-c2ccc(Cl)cc2Cl)n1-c1ccc(Cl)cc1` [Example 90, 1-(4-Chlorophenyl)-2-(2,4-dichlorophenyl)-N-(4-fluorobenzyl)-5-methyl-1H-imidazole-4-carboxamide]: the melting point was in the range of 165 to 166 °C. Further, the Ki in data set [2] (hCB1 pKi) is 10 nM.
`Cc1c(C(=O)NN2CCCCC2)nc(-c2cc(Cl)ccc2Cl)n1-c1ccccc1` [Example 95, 2-(2,5-Dichlorophenyl)-5-methyl-1-phenyl-N-(piperidin-1-yl)-1H-imidazole-4-carboxamide] returned a melting point of 227 °C. Moreover, the Ki in data set [2] (hCB1 pKi) is 63.1 nM.
For the compound `Cc1c(C(=O)NC2CCCCC2)nc(-c2cc(Cl)ccc2Cl)n1-c1ccccc1` [Example 96, N-Cyclohexyl-2-(2,5-dichlorophenyl)-5-methyl-1-phenyl-1H-imidazole-4-carboxamide], the melting point worked out at 236 °C. This compound gave a Ki in data set [2] (hCB1 pKi) of 6.31 nM.
`Cc1c(C(=O)Nc2cccc(C(F)(F)F)c2)nc(-c2ccc(Cl)cc2Cl)n1-c1ccc(Cl)cc1` [Example 104, 1-(4-Chlorophenyl)-2-(2,4-dichlorophenyl)-5-methyl-N-(3-(trifluoromethyl)phenyl)-1H-imidazole-4-carboxamide] yielded a melting point of 177 °C. The compound further gave a Ki in data set [2] (hCB1 pKi) of 6.31 nM.
On to `Cc1c(C(=O)NCc2cccc(C(F)(F)F)c2)nc(-c2ccc(Cl)cc2Cl)n1-c1ccc(Cl)cc1` [Example 105, 1-(4-Chlorophenyl)-2-(2,4-dichlorophenyl)-5-methyl-N-(3-(trifluoromethyl)benzyl)-1H-imidazole-4-carboxamide], for which the melting point was 138 to 140 °C. For the same compound, the Ki in data set [2] (hCB1 pKi) is 31.6 nM.
The compound `O=C(NC1CCCCC1)c1nc(-c2ccc(Cl)cc2Cl)n(-c2ccc(Cl)cc2)c1I` [Example 112, 1-(4-Chlorophenyl)-N-cyclohexyl-2-(2,4-dichlorophenyl)-5-iodo-1H-imidazole-4-carboxamide] returned a melting point of 226 to 230 °C. In addition, the Ki in data set [2] (hCB1 pKi) is 6.31 nM.
The corresponding values for `N#Cc1c(C(=O)NC2CCCCC2)nc(-c2ccc(Cl)cc2Cl)n1-c1ccc(Cl)cc1` [Example 113, 1-(4-Chlorophenyl)-5-cyano-N-cyclohexyl-2-(2,4-dichlorophenyl)-1H-imidazole-4-carboxamide] are 157 to 158 °C and 15.8 nM.
Regarding `O=C(NN1CCCCC1)c1nc(-c2ccc(Cl)cc2Cl)n(-c2ccc(Cl)cc2)c1CF` [Example 114, 1-(4-chlorophenyl)-2-(2,4-dichlorophenyl)-5-fluoromethyl-N-(piperidin-1-yl)-1H-imidazole-4-carboxamide], the melting point fell in the range of 162 to 163 °C. This compound showed a Ki in data set [2] (hCB1 pKi) of 63.1 nM.
`O=C(NN1CCCCC1)c1nc(-c2ccc(Cl)cc2Cl)n(-c2ccc(Cl)cc2)c1CO` [Example 115, 1-(4-chlorophenyl)-2-(2,4-dichlorophenyl)-5-hydroxymethyl-N-(piperidin-1-yl)-1H-imidazole-4-carboxamide] gave a melting point of 212 to 214 °C. For the same compound, the Ki in data set [2] (hCB1 pKi) was 31.6 nM.
As for `CCc1c(C(=O)NN2CCCCC2)nc(-c2ccccc2Cl)n1-c1ccc(Cl)cn1` [Example 116, 1-(5-chloropyrid-2-yl)-2-(2-chlorophenyl)-5-ethyl-N-(piperidin-1-yl)-1H-imidazole-4-carboxamide], the melting point fell in the range of 217 to 219 °C. In addition, in data set [2] (hCB1 pKi), the Ki is 12.6 nM.
